{
  "source": "ChEMBL document CHEMBL6103628",
  "about": "“Structural Optimization of Covalent Inhibitors for Deubiquitinase ChlaDUB1 of Chlamydia trachomatis as Antibiotic Agents” (J Med Chem, 2025)",
  "key": {"HEK293": {"test_system": "HEK293", "experiment": "Cytotoxicity against HEK293 cells assessed as reduction in cell viability upto 64 ug/mL measured after 20 hrs by XTT assay", "format": "toxicity, cell-based", "conditions": "human, hek293, 20 h, dose < 64 µg/ml"}, "Chlamydia trachomatis": {"test_system": "Chlamydia trachomatis", "experiment": "Anti-chlamydial activity against Chlamydia trachomatis serovar L2 infected in human HEp-2 cells assessed as inhibition of chlamydial inclusion incubated for 16 hrs by Alexa488/DAPI staining based immunofluorescence assay", "format": "functional, organism-based", "conditions": "serovar L2, HEp-2, 16 h"}, "[1]": {"target": "T1, Deubiquitinase and deneddylase Dub2 (Chlamydia trachomatis) (UniProt O84875)", "T1 sequence (whole entry)": "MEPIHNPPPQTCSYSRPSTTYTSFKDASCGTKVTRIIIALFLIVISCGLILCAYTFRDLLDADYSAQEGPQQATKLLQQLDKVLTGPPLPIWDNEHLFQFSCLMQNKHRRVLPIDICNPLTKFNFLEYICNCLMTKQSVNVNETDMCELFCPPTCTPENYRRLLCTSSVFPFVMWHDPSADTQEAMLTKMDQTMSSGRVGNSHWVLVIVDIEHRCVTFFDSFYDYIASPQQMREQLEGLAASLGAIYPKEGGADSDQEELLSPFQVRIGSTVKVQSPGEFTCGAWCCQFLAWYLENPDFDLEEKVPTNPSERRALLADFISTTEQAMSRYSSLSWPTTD", "experiment": "Inhibition of Chlamydia trachomatis DUB2 incubated for 60 mins relative to control"}, "[2]": {"target": "T2, Deubiquitinase and deneddylase Dub1 (Chlamydia trachomatis serovar L2 (strain ATCC VR-902B / DSM 19102 /434/Bu)) (UniProt B0B9A0)", "T2 sequence (whole entry)": "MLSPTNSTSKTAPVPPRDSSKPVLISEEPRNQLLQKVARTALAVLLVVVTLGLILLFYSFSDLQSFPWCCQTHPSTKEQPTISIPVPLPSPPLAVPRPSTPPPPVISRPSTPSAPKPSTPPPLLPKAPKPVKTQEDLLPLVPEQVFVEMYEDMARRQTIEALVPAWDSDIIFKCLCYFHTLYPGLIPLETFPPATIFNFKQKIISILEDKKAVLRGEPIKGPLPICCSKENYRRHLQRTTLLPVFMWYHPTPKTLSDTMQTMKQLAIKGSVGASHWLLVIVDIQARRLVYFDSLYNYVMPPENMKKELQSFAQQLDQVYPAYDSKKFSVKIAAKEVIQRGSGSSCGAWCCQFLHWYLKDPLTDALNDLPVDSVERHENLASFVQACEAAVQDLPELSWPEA", "experiment": "Non-covalent inhibition of recombinant Chlamydia trachomatis DUB1 (130 to 401 residues) using Ub-Rh110Gly as fluorogenic substrate incubated for 10 to 360 mins by enzymatic analysis", "conditions": "time 10-360 min"}, "[3]": {"target": "T3, Ubiquitin carboxyl-terminal hydrolase 28 (Homo sapiens) (UniProt Q96RU2)", "T3 sequence (whole entry)": "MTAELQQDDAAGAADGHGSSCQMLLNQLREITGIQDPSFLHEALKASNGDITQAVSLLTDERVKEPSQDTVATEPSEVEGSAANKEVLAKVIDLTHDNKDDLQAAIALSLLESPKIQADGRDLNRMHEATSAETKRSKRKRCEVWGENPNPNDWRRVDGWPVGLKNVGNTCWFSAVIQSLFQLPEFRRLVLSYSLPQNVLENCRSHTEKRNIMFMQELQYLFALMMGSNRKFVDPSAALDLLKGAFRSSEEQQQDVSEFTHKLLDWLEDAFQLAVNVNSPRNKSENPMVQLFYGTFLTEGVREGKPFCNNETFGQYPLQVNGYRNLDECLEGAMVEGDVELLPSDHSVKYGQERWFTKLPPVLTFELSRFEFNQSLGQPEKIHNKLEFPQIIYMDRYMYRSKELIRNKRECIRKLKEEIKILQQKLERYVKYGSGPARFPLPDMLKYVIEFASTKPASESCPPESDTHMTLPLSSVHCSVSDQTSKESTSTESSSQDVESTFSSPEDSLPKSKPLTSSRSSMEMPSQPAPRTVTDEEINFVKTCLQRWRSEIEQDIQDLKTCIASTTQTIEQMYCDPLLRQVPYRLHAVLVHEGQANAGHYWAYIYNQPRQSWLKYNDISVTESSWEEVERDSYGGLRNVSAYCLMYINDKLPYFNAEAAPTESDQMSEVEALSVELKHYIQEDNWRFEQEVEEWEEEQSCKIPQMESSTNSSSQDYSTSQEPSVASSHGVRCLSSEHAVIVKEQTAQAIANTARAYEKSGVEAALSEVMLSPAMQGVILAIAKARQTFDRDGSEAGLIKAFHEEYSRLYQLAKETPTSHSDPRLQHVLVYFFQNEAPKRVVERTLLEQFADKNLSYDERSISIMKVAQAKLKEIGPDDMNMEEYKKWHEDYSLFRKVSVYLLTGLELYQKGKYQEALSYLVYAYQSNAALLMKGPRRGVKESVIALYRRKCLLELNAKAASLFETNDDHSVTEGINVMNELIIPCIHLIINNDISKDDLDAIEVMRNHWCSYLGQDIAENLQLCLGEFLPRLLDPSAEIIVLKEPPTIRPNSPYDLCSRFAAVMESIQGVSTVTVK", "experiment": "Inhibition of human USP28 at 35 uM relative to control"}, "Escherichia coli": {"test_system": "Escherichia coli", "experiment": "Antimicrobial activity against Escherichia coli K12 upto 256 microg/ml incubated for 20 hrs by resazurin staining based microtiter plate reader analysis", "format": "functional, organism-based", "conditions": "dose <= 256.0 µg/ml"}, "HeLa": {"test_system": "HeLa", "experiment": "Cytotoxicity against human HeLa cells assessed as cell viability at 4 to 256 ug/mL measured after 20 hrs by XTT assay", "format": "toxicity, cell-based", "conditions": "dose 4-256 µg/ml"}, "[4]": {"target": "T4, Deubiquitinase and deneddylase Dub2 (Chlamydia trachomatis, UniProt O84875)", "T4 sequence (O84875 whole entry)": "T1 sequence (whole entry)", "experiment": "Inhibition of Chlamydia trachomatis DUB2 incubated for 60 mins"}, "[5]": {"target": "T2, Deubiquitinase and deneddylase Dub1 (Chlamydia trachomatis serovar L2 (strain ATCC VR-902B / DSM 19102 /434/Bu))", "experiment": "Inhibition of recombinant Chlamydia trachomatis DUB1 (130 to 401 residues) using Ub-Rh110Gly as fluorogenic substrate at highest concentration incubated for 60 to 360 mins by enzymatic analysis", "conditions": "time 60-360 min"}, "[6]": {"experiment": "Cytotoxicity against HDFa cells assessed as cell viability at 128 ug/mL measured after 20 hrs by XTT assay relative to control", "format": "toxicity, cell-based", "conditions": "human, at 128 µg/mL, read-out: Activity"}},
  "note": "pIC50: −log10 of the molar value. Calls of active or inactive are those of the source. The rule behind the calls is not given here.",
  "data": [
    {"smiles": "N#Cc1nccc(C(=O)NCc2nn(C(=O)Cc3ccccc3)c3ccccc23)n1", "values": [
      {"measurement": "Activity", "setting": "HEK293", "result": "Non-toxic"},
      {"measurement": "IC50", "setting": "Chlamydia trachomatis", "result": 25.6, "unit": "µg/mL"},
      {"measurement": "inhibition", "setting": "[1]", "result": 100, "unit": "%"},
      {"measurement": "inhibition", "setting": "[2]", "result": "Active"},
      {"measurement": "inhibition", "setting": "[3]", "result": "< 25", "unit": "%"},
      {"measurement": "Activity", "setting": "Escherichia coli", "result": "inactive"},
      {"measurement": "Activity", "setting": "HeLa", "result": "Non-toxic"},
      {"measurement": "pIC50", "setting": "[4]", "result": 4.52},
      {"measurement": "inhibition", "setting": "[5]", "result": "Active; Complete Inhibition Not Observed"},
      {"measurement": "viability at 20 h, 128 ug/mL", "setting": "[6]", "result": 67, "unit": "%"}
    ]}
  ]
}
